Measured values published in patent publication US20130230459A1, “RADIOLABELLED mGluR2 PET LIGANDS” (Janssen Pharmaceuticals, Inc., priority 2010, published 2013).
“And” between values parts separate entries of the source, which are not always exact repeats. Equal values may be shown once. Blank lines part the entries; values can stand above or below the compound they belong to.

Tests used:
[1] = biological target: T1, mGluR2 (Rattus norvegicus, UniProt P31421); test: MicroPET imaging: baseline, blocking and chase experiments; type: in vivo, Wistar rats; conditions: chase 0.3 mg/kg i.v. ~30 min after [^11C]B-2
T1 construct: from tissue; host or cells: brain of living male Wistar rats (in vivo microPET)
T1 sequence (P31421 19-872): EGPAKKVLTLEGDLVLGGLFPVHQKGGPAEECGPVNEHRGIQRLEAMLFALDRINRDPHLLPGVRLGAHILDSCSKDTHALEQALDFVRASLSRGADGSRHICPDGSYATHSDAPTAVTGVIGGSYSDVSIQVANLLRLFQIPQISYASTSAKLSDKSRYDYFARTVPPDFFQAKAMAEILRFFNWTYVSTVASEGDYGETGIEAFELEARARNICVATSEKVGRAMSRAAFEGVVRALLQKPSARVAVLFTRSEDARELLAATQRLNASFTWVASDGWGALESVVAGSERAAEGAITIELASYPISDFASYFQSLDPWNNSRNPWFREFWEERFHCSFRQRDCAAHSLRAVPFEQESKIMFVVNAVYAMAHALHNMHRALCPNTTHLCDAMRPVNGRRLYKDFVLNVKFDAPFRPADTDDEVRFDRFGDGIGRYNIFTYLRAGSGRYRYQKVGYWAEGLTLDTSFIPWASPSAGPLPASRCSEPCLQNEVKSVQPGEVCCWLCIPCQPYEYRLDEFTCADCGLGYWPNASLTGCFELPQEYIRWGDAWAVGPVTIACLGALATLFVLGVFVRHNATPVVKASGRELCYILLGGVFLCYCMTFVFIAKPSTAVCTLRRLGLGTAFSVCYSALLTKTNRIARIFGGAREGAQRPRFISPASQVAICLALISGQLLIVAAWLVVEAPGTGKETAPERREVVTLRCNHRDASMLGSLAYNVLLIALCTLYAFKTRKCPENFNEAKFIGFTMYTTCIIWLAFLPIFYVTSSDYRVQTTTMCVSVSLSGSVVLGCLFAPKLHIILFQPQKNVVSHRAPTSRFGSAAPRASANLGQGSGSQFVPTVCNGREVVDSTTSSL
Method: Imaging experiments were performed on a Focus™ 220 microPET scanner (Concorde Microsystems, Knoxyille, Tenn., USA) using healthy male Wistar rats. During all scan sessions, animals were kept under gas anesthesia (2.5% isoflurane in O2 at 1 L/min flow rate).
Dynamic scans of 90 min were acquired. After reconstruction of the images (filtered back projection), they were spatially normalized to an in-house created [^11C]raclopride template of the rat brain in Paxinos coordinates. Automated and symmetric volumes of interest (VOIs) were generated for different brain regions (striatum, cortex, cerebellum, hippocampus, hypothalamus, thalamus, substantia nigra, nucleus accumbens and lateral globus pallidus) from which time-activity curves (TAC) were constructed for each individual scan, using PMOD software (v 3.1, PMOD Technologies Ltd.). The radioactivity concentration in the different brain regions was expressed as SUV as a function of time p.i. of the radiotracer by normalization for body weight of the animal and injected dose.
Rats were injected with 30-60 MBq of high specific activity formulation of [^11C]B-4, [^11C]B-2, [^11C]B-7, or [^11C]B-10 via the tail vein under isoflurane anesthesia (2.5% in O2 at 1 L/min flow rate).
For pretreatment and displacement experiments, compound A, compound B or ritanserin were dissolved and administered in a vehicle containing 20% (2-hydroxypropyl)-β-cyclodextrine and two equivalents hydrochloric acid. The ritanserin solution was protected from light.
A self-blocking study was done by subcutaneous (s.c.) administration of the authentic reference material (for [^11C]B-4) at ˜30 min prior to the radiotracer injection. Displacement studies were performed by i.v. injection of compound B at dose 4, 1, 0.3 and 0.1 mg/kg, compound A at dose 1 mg/kg or ritanserin at dose 0.3 mg/kg. All chase compounds were injected ˜30 min after radiotracer injection. A wash-out period of at least four days was maintained between the different pretreatment and displacement studies.
[^11C]B-4 was evaluated in vivo in three rats which were scanned dynamically for 90 min using μPET. The first rat was used for a baseline scan. The second rat was pretreated with authentic reference material B-4 via s.c. administration (dose 10 mg/kg) at 30 min prior to tracer injection. The third rat was used in a chase experiment and was injected i.v. with authentic reference material B-4 (dose 3 mg/kg) 30 min after tracer injection.
Two rats were injected with high specific activity tracer ([^11C]B-4, [^11C]B-2, [^11C]B-7, or [^11C]B-10) and scanned dynamically for 90 min. The first rat was scanned baseline, the second rat was injected i.v. with compound B (dose 4 mg/kg) 30 min after tracer injection. Table 16 gives an overview of the maximum and minimum SUV values in the chase experiment for the four studied tracers.
A chase experiment was performed for [^11C]B-2 with different doses of compound B (4, 1, 0.3, 0.1 mg/kg). The chase compound was injected i.v. 30 min after tracer injection. Table 17 gives an overview of the average SUV values before and after injection of the chase for the total brain.

[2] = Biodistribution studies of 11C tracers; type: in vivo, Wistar rats; conditions: for SUV Blood / SUV Cerebellum / SUV Cerebrum total / SUV Cortex / SUV Hippocampus / SUV Striatum: normalized for body weight
Method: Biodistribution studies were carried out in healthy male Wistar rats (body weight 200-450 g) at 2 min, 30 min and 60 min post injection (p.i.) (n=3/time point). Rats were injected with about 11 MBq (2 min, 30 min analysis) or 22 MBq (60 min analysis) of the tracer via tail vein under anesthesia (2.5% isoflurane in O2 at 1 L/min flow rate) and sacrificed by decapitation at above specified time points. Blood and major organs were collected in tared tubes and weighed. The radioactivity in blood, organs and other body parts was measured using an automated gamma counter. The distribution of radioactivity in different parts of the body at different time points p.i. of the tracer was calculated and expressed as percentage of injected dose (% ID), and as percentage of injected dose per gram tissue (% ID/g) for the selected organs. % ID is calculated as cpm in organ/total cpm recovered. For calculation of total radioactivity in blood, blood mass was assumed to be 7% of the body mass.

effect of the chase compound on the binding of [^11C]B-2 [1]: no significant effect
SMILES: Cc1nc2sccn2c(=O)c1CCN1CCC(=C(c2ccc(F)cc2)c2ccc(F)cc2)CC1 [Ritanserin, ritanserin, reference compound]

% ID Blood ([2]; 2 min p.i.): 6.5 % ID and 6.5 ± 0.9 % ID
% ID Carcass ([2]; 2 min p.i.): 43.5 ± 1.4 % ID
% ID Cerebellum ([2]; 2 min p.i.): 0.17 % ID and 0.170 ± 0.012 % ID
% ID Cerebrum total ([2]; 2 min p.i.): 0.45 % ID and 0.446 ± 0.073 % ID
% ID Cortex ([2]; 2 min p.i.): 0.068 ± 0.015 % ID
% ID Heart ([2]; 2 min p.i.): 4.1 ± 0.1 % ID
% ID Hippocampus ([2]; 2 min p.i.): 0.019 ± 0.000 % ID
% ID Intestines ([2]; 2 min p.i.): 7.6 ± 0.5 % ID
% ID Kidneys ([2]; 2 min p.i.): 6.8 ± 0.7 % ID
% ID Liver ([2]; 2 min p.i.): 30.2 ± 0.9 % ID
% ID Lungs ([2]; 2 min p.i.): 1.8 ± 0.5 % ID
% ID Rest of cerebrum ([2]; 2 min p.i.): 0.359 ± 0.086 % ID
% ID Spleen + Pancreas ([2]; 2 min p.i.): 1.4 ± 0.1 % ID
% ID Stomach ([2]; 2 min p.i.): 1.3 ± 0.2 % ID
% ID Striatum ([2]; 2 min p.i.): 0.022 ± 0.002 % ID
% ID Urine ([2]; 2 min p.i.): 0.1 ± 0.0 % ID
Total brain uptake ([2]; 2 min p.i.): 0.65 % ID and 0.65 ± 0.1 % ID
% ID Blood ([2]; 30 min p.i.): 2.9 ± 0.1 % ID
% ID Carcass ([2]; 30 min p.i.): 61.8 ± 2.1 % ID
% ID Cerebellum ([2]; 30 min p.i.): 0.201 ± 0.016 % ID
% ID Cerebrum total ([2]; 30 min p.i.): 0.723 ± 0.103 % ID
% ID Cortex ([2]; 30 min p.i.): 0.078 ± 0.020 % ID
% ID Heart ([2]; 30 min p.i.): 1.7 ± 0.2 % ID
% ID Hippocampus ([2]; 30 min p.i.): 0.028 ± 0.006 % ID
% ID Intestines ([2]; 30 min p.i.): 9.9 ± 1.4 % ID
% ID Kidneys ([2]; 30 min p.i.): 3.0 ± 0.4 % ID
% ID Liver ([2]; 30 min p.i.): 17.0 ± 1.1 % ID
% ID Lungs ([2]; 30 min p.i.): 0.8 ± 0.1 % ID
% ID Rest of cerebrum ([2]; 30 min p.i.): 0.580 ± 0.081 % ID
% ID Spleen + Pancreas ([2]; 30 min p.i.): 1.0 ± 0.2 % ID
% ID Stomach ([2]; 30 min p.i.): 2.3 ± 0.5 % ID
% ID Striatum ([2]; 30 min p.i.): 0.037 ± 0.005 % ID
% ID Urine ([2]; 30 min p.i.): 0.3 ± 0.1 % ID
Total brain uptake ([2]; 30 min p.i.): 0.95 ± 0.1 % ID
% ID Blood ([2]; 60 min p.i.): 3.6 % ID and 3.6 ± 0.2 % ID
% ID Carcass ([2]; 60 min p.i.): 57.8 ± 1.9 % ID
% ID Cerebellum ([2]; 60 min p.i.): 0.155 ± 0.024 % ID
% ID Cerebrum total ([2]; 60 min p.i.): 0.597 ± 0.062 % ID
% ID Cortex ([2]; 60 min p.i.): 0.074 ± 0.021 % ID
% ID Heart ([2]; 60 min p.i.): 1.0 ± 0.1 % ID
% ID Hippocampus ([2]; 60 min p.i.): 0.024 ± 0.003 % ID
% ID Intestines ([2]; 60 min p.i.): 12.0 ± 1.1 % ID
% ID Kidneys ([2]; 60 min p.i.): 1.9 ± 0.3 % ID
% ID Liver ([2]; 60 min p.i.): 18.6 ± 1.0 % ID
% ID Lungs ([2]; 60 min p.i.): 0.6 ± 0.1 % ID
% ID Rest of cerebrum ([2]; 60 min p.i.): 0.468 ± 0.054 % ID
% ID Spleen + Pancreas ([2]; 60 min p.i.): 0.8 ± 0.0 % ID
% ID Stomach ([2]; 60 min p.i.): 4.3 ± 1.8 % ID
% ID Striatum ([2]; 60 min p.i.): 0.031 ± 0.003 % ID
% ID Urine ([2]; 60 min p.i.): 0.6 ± 0.1 % ID
% ID present in liver and intestines ([2]; 60 min p.i.): 30.6 % ID
% ID present in the urinary system ([2]; 60 min p.i.): 2.5 % ID
Total brain uptake ([2]; 60 min p.i.): 0.76 ± 0.1 % ID
% ID present in the carcass ([2]; at all time points examined): ~54 % ID
SMILES: [11CH3]Oc1cccc(F)c1C1CCN(c2ccn3c(CC4CC4)nnc3c2Cl)CC1 [[^11C]B-6, 8-chloro-3-(cyclopropylmethyl)-7-[4-[2-fluoro-6-[^11C]methoxyphenyl]-1-piperidinyl]-1,2,4-triazolo[4,3-a]pyridine]
SUV Blood ([2]; 2 min p.i.): 0.90 ± 0.01
SUV Cerebellum ([2]; 2 min p.i.): 1.62 ± 0.00
SUV Cerebrum total ([2]; 2 min p.i.): 1.00 ± 0.02
SUV Cortex ([2]; 2 min p.i.): 1.04 ± 0.00
SUV Hippocampus ([2]; 2 min p.i.): 0.86 ± 0.01
SUV Striatum ([2]; 2 min p.i.): 1.01 ± 0.01
SUV Blood ([2]; 30 min p.i.): 0.40 ± 0.00
SUV Cerebellum ([2]; 30 min p.i.): 2.28 and 2.28 ± 0.01
SUV Cerebrum total ([2]; 30 min p.i.): 1.66 ± 0.02
SUV Cortex ([2]; 30 min p.i.): 1.47 ± 0.03
SUV Hippocampus ([2]; 30 min p.i.): 1.36 ± 0.01
SUV Striatum ([2]; 30 min p.i.): 1.70 ± 0.01
SUV Blood ([2]; 60 min p.i.): 0.50 ± 0.00
SUV Cerebellum ([2]; 60 min p.i.): 1.57 ± 0.01
SUV Cerebrum total ([2]; 60 min p.i.): 1.24 ± 0.01
SUV Cortex ([2]; 60 min p.i.): 1.01 ± 0.01
SUV Hippocampus ([2]; 60 min p.i.): 1.02 ± 0.01
SUV Striatum ([2]; 60 min p.i.): 1.46 ± 0.01
